The values below come from patent US6787149B1 (El Khoury and Stein Ltd., priority 2000, dated 2004).

In experiment [1] the test system is intraarticular opioid receptors. In words: Intraarticular injection after arthroscopic surgery of the knee. The settings on record: injected in the knee after arthroscopic surgery. It counts as in vivo, human.
The subject of experiment [2] is patients who had burns from radiation therapy.
Experiment [3] deals with children undergoing tonsillectomy. In words: Analgesia for postsurgical pain after tonsillectomy, morphine spray on tonsil beds. In kind it is in vivo, human. The settings on record: spray in saline on the tonsil beds after surgery; able to swallow and eat ice cream same day. An excerpt: The morphine spray in saline was used on the tonsil beds after surgery in children undergoing tonsillectomy.

Experiment [4] has as its system patients who had undergone failed back operations. The settings on record: 1-3 mg on the back, ultrasound, massage, heat, Aquaphor vehicle; cited from earlier work.
The subject of experiment [5] is patients who had acute shingles. In words: Analgesia for shingles, morphine spray. It counts as in vivo, human. An excerpt:
Other patients who were helped were those who had acute shingles which would produce excruciating pain on the chest.

[6] abbreviates: after two or three days of using the spray.

Turning to `CCCCN1CCCCC1C(=O)Nc1c(C)cccc1C` (centres unmarked) [Marcaine], the “Duration of relief after surgery” value in experiment [1] was not above 12 h.

On to `CN1CC[C@]23c4c5ccc(O)c4O[C@H]2[C@@H](O)C=C[C@H]3[C@H]1C5.O=S(=O)(O)O` [Morphine, morphine sulfate], for which the “Relief of pain, patients with pain on the tongue or in the mouth due to radiation burns” value in experiment [2] (compared with skin radiation burn patients) is listed as “same experience”. Also, the “Time able to sit to do exercises after topical application” value in experiment [2] (one patient with severe burns on the buttocks, could not sit before) is “an hour and a half”. In addition, the “Relief of pain, one patient with severe burns on the buttocks (prostate cancer)” value in experiment [2] (spray) is “excellent relief of the pain”. Moreover, the “Start of relief after topical application” value in experiment [2] (two or three mg diluted with saline, sprayed) lay within 10 to 15 min. Further, the Relief of pain entry in experiment [2] (two or three mg diluted with saline, sprayed over inflamed area, all patients treated) was “excellent relief of pain”. Further, in experiment [3], the Pain after surgery entry is on record as “no pain after surgery”. Also, the Pain relief entry in experiment [4] is reported as “Some improvement in pain relief”. In experiment [5] (setting [6]), the Healing result is on record as “healed faster” and the Post-herpetic neuralgia entry was “without any post-herpetic neuralgia”. The “Pain of acute shingles” value in experiment [5] (spray, typically three times a day) is “significantly reduced”.
